What all share (test): cell-based
In one experiment the target is hNav1.5 (Homo sapiens, UniProt Q14524). Conditions: read-out: IWQ Use Nav1.5.
A further experiment concerns the target hNav1.3 (Homo sapiens, UniProt Q9NY46). The conditions noted are these: IonWorks Quattro, use-dependent block, hNav1.3; read-out: IWQ Use Nav1.3.
The target of a further experiment is hNav1.7 (Homo sapiens, UniProt Q15858). In kind it is cell-based. Conditions: read-out: IWQ Use Nav1.7.
[1] abbreviates: IonWorks Quattro, use-dependent block, hNav1.5.
Where [2] appears, read: IonWorks Quattro, use-dependent block, hNav1.7.
[3] abbreviates: IonWorks Quattro, clamped to −110 mV, depolarized to −10 mV, 5 min after compound, n=2.
Where [4] appears, read: Table 24, IonWorks Quattro, use, […].
[5] abbreviates: Table 25, IonWorks Quattro, use, […].

Where two headings read alike, the source gives them in different places. Positions of bridges follow the written chain, without caps; N, C: chain ends. Non-standard residues stand in square brackets, D forms with d. Residues, ends and D or L forms follow the SMILES beside them. Bip = N[C@@H](Cc1ccc(-c2ccccc2)cc1)C(=O)O

Chain of hNav1.7 (Q15858 whole entry, looked up): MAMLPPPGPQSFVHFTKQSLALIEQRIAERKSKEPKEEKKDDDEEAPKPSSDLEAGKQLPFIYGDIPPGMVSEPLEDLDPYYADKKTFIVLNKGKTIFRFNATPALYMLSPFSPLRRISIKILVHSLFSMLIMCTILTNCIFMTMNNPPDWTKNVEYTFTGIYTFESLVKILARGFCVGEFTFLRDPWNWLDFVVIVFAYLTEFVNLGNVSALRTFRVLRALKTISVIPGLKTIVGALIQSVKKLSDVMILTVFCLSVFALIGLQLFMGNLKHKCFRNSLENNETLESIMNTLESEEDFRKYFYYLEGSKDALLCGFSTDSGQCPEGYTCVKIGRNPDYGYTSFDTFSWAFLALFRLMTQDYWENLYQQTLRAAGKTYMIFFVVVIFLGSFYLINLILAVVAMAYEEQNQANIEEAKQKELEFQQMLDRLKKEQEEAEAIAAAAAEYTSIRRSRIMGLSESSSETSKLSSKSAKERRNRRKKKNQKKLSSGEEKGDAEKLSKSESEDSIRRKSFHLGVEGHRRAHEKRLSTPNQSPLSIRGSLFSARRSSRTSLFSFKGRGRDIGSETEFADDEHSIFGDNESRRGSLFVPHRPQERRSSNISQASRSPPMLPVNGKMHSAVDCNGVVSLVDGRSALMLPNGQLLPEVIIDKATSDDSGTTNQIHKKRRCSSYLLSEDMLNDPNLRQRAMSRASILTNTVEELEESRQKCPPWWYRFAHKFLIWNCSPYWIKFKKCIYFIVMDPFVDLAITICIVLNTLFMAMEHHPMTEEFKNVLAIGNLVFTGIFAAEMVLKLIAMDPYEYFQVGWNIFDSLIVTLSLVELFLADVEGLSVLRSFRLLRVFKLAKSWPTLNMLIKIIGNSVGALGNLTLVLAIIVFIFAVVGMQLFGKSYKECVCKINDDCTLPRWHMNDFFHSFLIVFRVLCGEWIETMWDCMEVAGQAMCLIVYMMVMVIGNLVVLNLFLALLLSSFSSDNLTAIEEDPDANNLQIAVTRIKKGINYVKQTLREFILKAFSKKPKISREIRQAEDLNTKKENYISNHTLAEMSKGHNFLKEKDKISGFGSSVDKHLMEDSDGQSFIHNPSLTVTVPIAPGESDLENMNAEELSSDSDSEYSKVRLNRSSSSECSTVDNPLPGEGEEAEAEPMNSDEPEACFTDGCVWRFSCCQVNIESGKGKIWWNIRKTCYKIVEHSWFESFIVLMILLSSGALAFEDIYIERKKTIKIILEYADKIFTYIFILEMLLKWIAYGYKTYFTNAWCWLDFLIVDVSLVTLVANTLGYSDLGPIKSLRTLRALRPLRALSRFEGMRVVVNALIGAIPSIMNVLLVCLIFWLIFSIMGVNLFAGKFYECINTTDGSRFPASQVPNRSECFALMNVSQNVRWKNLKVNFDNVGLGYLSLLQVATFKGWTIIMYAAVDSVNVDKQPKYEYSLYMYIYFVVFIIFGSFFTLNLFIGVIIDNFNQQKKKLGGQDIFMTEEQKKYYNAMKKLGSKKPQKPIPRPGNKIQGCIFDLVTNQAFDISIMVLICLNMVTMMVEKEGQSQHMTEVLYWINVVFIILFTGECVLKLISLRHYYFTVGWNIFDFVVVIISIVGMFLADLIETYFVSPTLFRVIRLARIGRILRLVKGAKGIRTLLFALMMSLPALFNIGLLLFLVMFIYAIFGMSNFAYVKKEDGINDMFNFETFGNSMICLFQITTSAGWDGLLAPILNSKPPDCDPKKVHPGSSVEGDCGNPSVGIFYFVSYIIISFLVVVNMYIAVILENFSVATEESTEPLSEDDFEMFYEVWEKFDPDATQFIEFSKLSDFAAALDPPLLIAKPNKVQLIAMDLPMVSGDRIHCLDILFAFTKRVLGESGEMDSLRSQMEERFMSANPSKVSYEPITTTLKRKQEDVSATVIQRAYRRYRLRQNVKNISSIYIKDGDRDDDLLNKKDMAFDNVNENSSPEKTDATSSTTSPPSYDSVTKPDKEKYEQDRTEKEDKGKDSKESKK
Chain of hNav1.5 (Q14524 whole entry, looked up): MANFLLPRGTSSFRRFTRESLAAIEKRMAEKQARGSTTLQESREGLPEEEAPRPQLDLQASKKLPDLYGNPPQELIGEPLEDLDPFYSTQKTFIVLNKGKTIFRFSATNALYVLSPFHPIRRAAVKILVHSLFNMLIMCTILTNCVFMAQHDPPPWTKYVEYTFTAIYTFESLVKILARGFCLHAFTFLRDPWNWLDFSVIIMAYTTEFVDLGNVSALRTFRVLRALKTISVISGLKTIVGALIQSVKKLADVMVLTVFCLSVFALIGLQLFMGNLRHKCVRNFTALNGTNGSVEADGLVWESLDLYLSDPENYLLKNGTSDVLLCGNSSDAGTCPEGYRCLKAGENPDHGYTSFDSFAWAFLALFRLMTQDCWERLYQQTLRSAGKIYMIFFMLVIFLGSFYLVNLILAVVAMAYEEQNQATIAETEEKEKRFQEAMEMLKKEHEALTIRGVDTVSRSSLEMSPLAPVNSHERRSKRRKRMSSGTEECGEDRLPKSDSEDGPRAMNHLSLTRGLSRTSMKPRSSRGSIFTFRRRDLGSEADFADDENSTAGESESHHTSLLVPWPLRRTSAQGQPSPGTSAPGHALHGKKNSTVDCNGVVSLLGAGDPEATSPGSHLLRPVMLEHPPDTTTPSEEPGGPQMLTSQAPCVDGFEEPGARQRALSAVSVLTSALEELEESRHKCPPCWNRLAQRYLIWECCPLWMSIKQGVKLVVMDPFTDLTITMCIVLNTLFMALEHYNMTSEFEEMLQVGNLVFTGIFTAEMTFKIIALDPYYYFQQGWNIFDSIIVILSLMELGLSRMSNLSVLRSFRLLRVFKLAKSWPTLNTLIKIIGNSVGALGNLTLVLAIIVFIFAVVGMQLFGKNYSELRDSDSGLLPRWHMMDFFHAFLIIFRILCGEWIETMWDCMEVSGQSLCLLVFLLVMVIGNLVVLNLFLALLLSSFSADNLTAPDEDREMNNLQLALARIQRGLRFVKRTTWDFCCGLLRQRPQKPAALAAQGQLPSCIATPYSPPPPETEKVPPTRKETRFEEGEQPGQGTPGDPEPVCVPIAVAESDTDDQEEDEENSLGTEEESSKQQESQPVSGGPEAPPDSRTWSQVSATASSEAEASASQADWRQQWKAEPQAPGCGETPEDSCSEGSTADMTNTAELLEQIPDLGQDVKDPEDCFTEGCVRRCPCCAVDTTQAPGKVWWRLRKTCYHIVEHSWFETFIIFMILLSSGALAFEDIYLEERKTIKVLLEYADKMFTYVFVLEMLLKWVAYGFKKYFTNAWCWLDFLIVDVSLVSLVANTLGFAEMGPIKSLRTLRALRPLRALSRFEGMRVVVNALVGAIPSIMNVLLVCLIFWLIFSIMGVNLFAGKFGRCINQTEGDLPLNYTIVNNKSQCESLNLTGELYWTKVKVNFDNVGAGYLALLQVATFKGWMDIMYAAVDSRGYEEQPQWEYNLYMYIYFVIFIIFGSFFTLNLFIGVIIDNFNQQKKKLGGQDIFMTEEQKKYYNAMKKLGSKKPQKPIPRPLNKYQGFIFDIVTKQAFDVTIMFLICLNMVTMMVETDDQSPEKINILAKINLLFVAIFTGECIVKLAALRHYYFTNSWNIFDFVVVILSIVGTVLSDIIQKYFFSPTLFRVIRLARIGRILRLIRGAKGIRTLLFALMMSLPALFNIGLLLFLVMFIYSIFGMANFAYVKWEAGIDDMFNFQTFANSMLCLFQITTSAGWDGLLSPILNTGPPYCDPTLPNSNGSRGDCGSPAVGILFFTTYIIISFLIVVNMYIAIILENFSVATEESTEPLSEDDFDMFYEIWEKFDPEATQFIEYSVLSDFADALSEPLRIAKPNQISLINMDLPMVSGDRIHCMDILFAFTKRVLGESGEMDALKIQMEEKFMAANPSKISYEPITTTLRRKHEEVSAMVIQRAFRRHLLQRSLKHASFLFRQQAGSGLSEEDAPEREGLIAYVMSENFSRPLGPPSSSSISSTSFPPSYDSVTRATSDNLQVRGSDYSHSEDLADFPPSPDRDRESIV

With `CC[C@H](C)[C@@H]1NC(=O)[C@@H]2CSSC[C@@H]3NC(=O)[C@H](C(C)C)NC(=O)[C@H](CC(C)C)NC(=O)[C@H](CC(N)=O)NC(=O)[C@@H]4CCCN4C(=O)[C@H](CCCNC(=N)N)NC(=O)[C@H](CSSC[C@H](NC(=O)[C@@H](N)CC(=O)O)C(=O)N[C@@H](CC(C)C)C(=O)NCC(=O)N[C@@H](C)C(=O)N[C@@H](CC[S+](C)[O-])C(=O)N[C@@H](CCCNC(=N)N)C(=O)N[C@@H](CCCCN)C(=O)N2)NC(=O)[C@H](CSSC[C@@H](C(=O)N[C@@H](CCCCN)C(=O)N[C@@H](Cc2ccc(O)cc2)C(=O)N[C@H](C(=O)N[C@@H](Cc2ccccc2)C(N)=O)C(C)C)NC(=O)[C@H](Cc2c[nH]c4ccccc24)NC(=O)[C@H](CCCCN)NC(=O)[C@H](Cc2c[nH]cn2)NC(=O)[C@H]([C@@H](C)O)NC(=O)[C@H](CCCNC(=N)N)NC(=O)[C@H](CO)NC3=O)NC(=O)[C@H](CCCCN)NC(=O)[C@H](CC(=O)O)NC(=O)[C@H](CC(N)=O)NC(=O)[C@H](CC(=O)O)NC(=O)[C@@H]2CCCN2C1=O` (single isomer, unassigned) [compound 791], the IC50 is 39.5 µM at hNav1.5 (setting [1]), above 5 µM at hNav1.3 and above 5 µM on hNav1.7 (setting [2]).

Take `CC[C@H](C)[C@@H]1NC(=O)[C@@H]2CSSC[C@@H]3NC(=O)[C@H](C(C)C)NC(=O)[C@H](CC(C)C)NC(=O)[C@H](CC(N)=O)NC(=O)[C@@H]4CCCN4C(=O)[C@H](CCCNC(=N)N)NC(=O)[C@H](CSSC[C@H](NC(=O)[C@@H](N)CC(=O)O)C(=O)N[C@@H](CC(C)C)C(=O)NCC(=O)N[C@@H](C)C(=O)N[C@@H](CC[S+](C)[O-])C(=O)N[C@@H](CCCNC(=N)N)C(=O)N[C@@H](CCCCN)C(=O)N2)NC(=O)[C@H](CSSC[C@@H](C(=O)N[C@@H](CCCCN)C(=O)N[C@@H](Cc2ccc(O)cc2)C(=O)N[C@H](C(=O)N[C@@H](Cc2ccccc2)C(N)=O)C(C)C)NC(=O)[C@H](Cc2c[nH]c4ccccc24)NC(=O)[C@H](CCCCN)NC(=O)[C@H](Cc2c[nH]cn2)NC(=O)[C@H]([C@@H](C)O)NC(=O)[C@H](CCCNC(=N)N)NC(=O)[C@H](CO)NC3=O)NC(=O)[C@H](CCCCN)NC(=O)[C@H](CC(=O)O)NC(=O)[C@H](CC(N)=O)NC(=O)[C@H](CC(=O)O)NC(=O)[C@@H]2CCCN2C1=O` (single isomer, unassigned) [compound 792]: the IC50 at hNav1.5 (setting [1]) was 49.8 µM; at hNav1.3 it was above 5 µM; on hNav1.7 (setting [2]), above 5 µM.

For the compound `CC[C@H](C)[C@@H]1NC(=O)[C@@H]2CSSC[C@@H]3NC(=O)[C@H](C(C)C)NC(=O)[C@H](CC(C)C)NC(=O)[C@H](CC(N)=O)NC(=O)[C@@H]4CCCN4C(=O)[C@H](CCCNC(=N)N)NC(=O)[C@H](CSSC[C@H](NC(=O)[C@@H](N)CC(=O)O)C(=O)N[C@@H](CC(C)C)C(=O)NCC(=O)N[C@@H](Cc4ccccc4)C(=O)N[C@@H](Cc4ccc(I)cc4)C(=O)N[C@@H](CCCNC(=N)N)C(=O)N[C@@H](CCCCN)C(=O)N2)NC(=O)[C@H](CSSC[C@@H](C(=O)N[C@@H](CCCCN)C(=O)N[C@@H](Cc2ccc(O)cc2)C(=O)N[C@H](C(=O)N[C@@H](Cc2ccccc2)C(N)=O)C(C)C)NC(=O)[C@H](Cc2c[nH]c4ccccc24)NC(=O)[C@H](CCCCN)NC(=O)[C@H](Cc2c[nH]cn2)NC(=O)[C@H]([C@@H](C)O)NC(=O)[C@H](CCCNC(=N)N)NC(=O)[C@H](CO)NC3=O)NC(=O)[C@H](CCCCN)NC(=O)[C@H](CC(=O)O)NC(=O)[C@H](CC(N)=O)NC(=O)[C@H](CC(=O)O)NC(=O)[C@@H]2CCCN2C1=O` [SEQ ID NO: 291], the IC50 on hNav1.5 (setting [3]) amounted to 0.95 µM; on hNav1.7 (setting [3]) it was 0.02 µM.

With `CC[C@H](C)[C@@H]1NC(=O)[C@@H]2CSSC[C@@H]3NC(=O)[C@H](C(C)C)NC(=O)[C@H](CC(C)C)NC(=O)[C@H](CC(N)=O)NC(=O)[C@@H]4CCCN4C(=O)[C@H](CCCNC(=N)N)NC(=O)[C@H](CSSC[C@H](NC(=O)[C@@H](N)CC(=O)O)C(=O)N[C@@H](CC(C)C)C(=O)NCC(=O)N[C@@H](Cc4ccccc4)C(=O)N[C@@H](CCSC)C(=O)N[C@@H](CCCNC(=N)N)C(=O)N[C@@H](CCCCN)C(=O)N2)NC(=O)[C@H](CSSC[C@@H](C(=O)N[C@@H](CCCCN)C(=O)N[C@@H](Cc2ccc(O)cc2)C(=O)N[C@H](C(=O)N[C@@H](Cc2ccccc2)C(N)=O)C(C)C)NC(=O)[C@H](Cc2c[nH]c4ccccc24)NC(=O)[C@H](CC(=O)O)NC(=O)[C@H](Cc2c[nH]cn2)NC(=O)[C@H]([C@@H](C)O)NC(=O)[C@H](CCCNC(=N)N)NC(=O)[C@H](CO)NC3=O)NC(=O)[C@H](CCCCN)NC(=O)[C@H](CC(=O)O)NC(=O)[C@H](CC(N)=O)NC(=O)[C@H](CC(=O)O)NC(=O)[C@@H]2CCCN2C1=O` [SEQ ID NO: 750, [Asp28]GpTx-1] (H-DCLGFMRKCIPDNDKCCRPNLVCSRTHDWCKYVF-NH2; disulfide 2-17, 9-23, 16-30), the IC50 on hNav1.5 was determined as 37.9 µM; at hNav1.7 (setting [2]), 0.73 µM.

For the compound `CC[C@H](C)[C@@H]1NC(=O)[C@@H]2CSSC[C@@H]3NC(=O)[C@H](C(C)C)NC(=O)[C@H](CC(C)C)NC(=O)[C@H](CC(N)=O)NC(=O)[C@@H]4CCCN4C(=O)[C@H](CCCNC(=N)N)NC(=O)[C@H](CSSC[C@H](NC(=O)[C@@H](N)CC(=O)O)C(=O)N[C@@H](CC(C)C)C(=O)NCC(=O)N[C@@H](Cc4ccccc4)C(=O)N[C@@H](CCSC)C(=O)N[C@@H](CCCNC(=N)N)C(=O)N[C@@H](CCCCN)C(=O)N2)NC(=O)[C@H](CSSC[C@@H](C(=O)N[C@@H](CCCCN)C(=O)N[C@@H](Cc2ccc(O)cc2)C(=O)N[C@H](C(=O)N[C@@H](Cc2ccccc2)C(N)=O)C(C)C)NC(=O)[C@H](Cc2ccccc2)NC(=O)[C@H](CCCCN)NC(=O)[C@H](Cc2c[nH]cn2)NC(=O)[C@H]([C@@H](C)O)NC(=O)[C@H](CCCNC(=N)N)NC(=O)[C@H](CO)NC3=O)NC(=O)[C@H](CCCCN)NC(=O)[C@H](CC(=O)O)NC(=O)[C@H](CC(N)=O)NC(=O)[C@H](CC(=O)O)NC(=O)[C@@H]2CCCN2C1=O` [compound 112] (H-DCLGFMRKCIPDNDKCCRPNLVCSRTHKFCKYVF-NH2; disulfide 2-17, 9-23, 16-30), the IC50 is 6.21 µM at hNav1.5 (setting [4]) and 2.18 µM on hNav1.7 (setting [4]).

For `CSCC[C@@H]1NC(=O)[C@H](Cc2ccccc2)NC(=O)CNC(=O)[C@H](CC(C)C)NC(=O)[C@@H](NC(=O)[C@@H](N)CC(=O)O)CSSC[C@@H]2NC(=O)[C@@H]3CSSC[C@@H](C(=O)N[C@@H](CCCCN)C(=O)N[C@@H](Cc4ccc(O)cc4)C(=O)N[C@H](C(=O)N[C@@H](Cc4ccccc4)C(N)=O)C(C)C)NC(=O)[C@H](Cc4c[nH]c5ccccc45)NC(=O)[C@H](CCCCN)NC(=O)[C@H](Cc4c[nH]cn4)NC(=O)[C@H]([C@@H](C)O)NC(=O)[C@H](CCCNC(=N)N)NC(=O)[C@H](CO)NC(=O)[C@H](CSSC[C@H](NC(=O)[C@H](CCCCN)NC(=O)[C@H](CCCNC(=N)N)NC1=O)C(=O)N[C@@H](CCSC)C(=O)N1CCC[C@H]1C(=O)N[C@@H](CC(=O)O)C(=O)N[C@@H](CC(N)=O)C(=O)N[C@@H](CC(=O)O)C(=O)N[C@@H](CCCCN)C(=O)N3)NC(=O)[C@H](C(C)C)NC(=O)[C@H](CC(C)C)NC(=O)[C@H](CC(N)=O)NC(=O)[C@@H]1CCCN1C(=O)[C@H](CCCNC(=N)N)NC2=O` [compound 307] (H-DCLGFMRKCMPDNDKCCRPNLVCSRTHKWCKYVF-NH2; disulfide 2-17, 9-23, 16-30), the IC50 was 3.38 µM at hNav1.5 (IonWorks Quattro, Use) and 0.09 µM at hNav1.7.

As to `CC[C@H](C)[C@@H]1NC(=O)[C@@H]2CSSC[C@@H]3NC(=O)[C@H](C(C)C)NC(=O)[C@H](CC(C)C)NC(=O)[C@H](CC(N)=O)NC(=O)[C@@H]4CCCN4C(=O)[C@H](CCCNC(=N)N)NC(=O)[C@H](CSSC[C@H](NC(=O)[C@@H](N)CC(=O)O)C(=O)N[C@@H](CC(C)C)C(=O)NCC(=O)N[C@@H](Cc4ccccc4)C(=O)N[C@@H](CCSC)C(=O)N[C@@H](CCCNC(=N)N)C(=O)N[C@@H](CCCCN)C(=O)N2)NC(=O)[C@H](CSSC[C@@H](C(=O)N[C@@H](CCCCN)C(=O)N[C@@H](Cc2ccc(-c4ccccc4)cc2)C(=O)N[C@H](C(=O)N[C@@H](Cc2ccccc2)C(N)=O)C(C)C)NC(=O)[C@H](Cc2c[nH]c4ccccc24)NC(=O)[C@H](CCCCN)NC(=O)[C@H](Cc2c[nH]cn2)NC(=O)[C@H]([C@@H](C)O)NC(=O)[C@H](CCCNC(=N)N)NC(=O)[C@H](CO)NC3=O)NC(=O)[C@H](CCCCN)NC(=O)[C@H](CC(=O)O)NC(=O)[C@H](CC(N)=O)NC(=O)[C@H](CC(=O)O)NC(=O)[C@@H]2CCCN2C1=O` [compound 376] (H-DCLGFMRKCIPDNDKCCRPNLVCSRTHKWCK[Bip]VF-NH2; disulfide 2-17, 9-23, 16-30), the figures for the IC50 on hNav1.5 (setting [5]) and on hNav1.7 (setting [5]) were 2.9 µM and 0.03 µM, respectively.
